# How the values were obtained:
# obese C57BL/6 mice [1] = test: Plasma liver markers after 30-day chronic treatment; format: in vivo, mouse
# Source text: (§1) In order to determine the long-term effects of the molecules of interest, C57BL/6 mice made obese by means of a high-sucrose, high-fat diet (HSHF: 30% crude fat, 33.5% carbohydrates; ref. E15126-34; ref. E15126-34, SSNIFF, Soest, Germany) for 20 weeks. These mice then received daily an i.p. injection of rimonabant, JM-00.266 (i.e., compound IA) or vehicle for a period of 30 days. In parallel, weight and food intake were monitored every two days following the beginning of the treatment.
# Total cholesterol, triglycerides and hepatic markers were assayed by a Dimension Vista Intelligent Lab System (Siemens, Saint-Denis, France) using suitable reagents.
# [2] = tested on: liver, subcutaneous and visceral adipose tissue of obese mice; test: Gene expression of markers (RT-PCR) in liver and adipose tissues after oral treatment with food; format: in vivo, mouse
# Description: Total messenger RNA (mRNA) extraction was carried out with Tri-Reagent (Euromedex, France) and consecutive synthesis of complementary DNA (cDNA) was carried out from 1 μg of mRNA with the Bio-Rad iScripttm Reverse Transcription super mix kit (Bio-Rad, France). Gene expression was evaluated by semi-quantitative real-time reverse transcription-polymerase chain reaction (RT-PCR). The primers used, described below, were selected using the Primer3Plus software (http://www.bioinformatics.nl/cgi-25 bin/primer3plus/primer3plus.cgi) and synthesized by MWG-Biotech. Semi-quantification of gene expression was obtained by taking into account the efficacy of each PCR and standardization with the reporter gene TATA box-binding protein (TBP).
# The impact of the treatment on endocannabinoid system activity is evaluated by measuring the gene expression 1) of receptors CB1R and CB2R 2) of the endocannabinoid synthesis enzyme, N-acyl phosphatidylethanolamine phospholipase D (NAPE-PLD) and 3) of the endocannabinoid degradation enzyme, fatty acid amide hydrolase (FAAH).
# Fatty acid synthase (FAS), stearoyl-CoA desaturase 1 (SCD-1) and glycerol-phosphate acyl-transferase (GPAT2) are enzymes whose expression variations reflect lipogenic activity.
# Glucose-6-phosphatase (G6P) and the glucose transporters GLUT2 and GLUT4 in the liver are used herein as neoglucogenesis markers.
# F4/80 is a mature macrophage marker.
# Tumour necrosis factor-alpha (TNF-a) is a proinflammatory cytokine affecting the regulation of numerous biological processes such as immune functions, cell differentiation and energy metabolism.
# obese C57BL/6 mice [3] = test: Body mass, oral treatment simultaneously with food on high-fat diet; format: in vivo, mouse; conditions: obese mice on high-fat diet (35% crude fat), one administration daily during the meal, 10 mg/kg oral, 28 days
# Description: C57BL/6 mice were made obese by means of a high-fat diet (35% crude fat, 25.3% carbohydrates; ref. E15742-34, SSNIFF, Soest, Germany) for 15 weeks. […] The weight of the animals was measured every two days from the beginning of the treatment.
# wild-type C57BL/6 mice = test: Acute oral glucose tolerance test (OGTT) in wild-type mice; format: in vivo, mouse; conditions: 10 mg/kg i.p. 10 min before 2 g/kg oral glucose load, wild-type C57Bl/6J mice
# Description: In order to evaluate the short-term effects of the rimonabant-like molecules, as well as their selectivity for CB1R, wild-type C57BL/6 mice and CB1R −/− mice underwent an oral glucose tolerance test (OGTT at 2 g/kg) 10 min after i.p. injection of vehicle or of JM-02.003 or JM-00.266 (i.e., compound IA) (10 mg/kg). Blood glucose was measured at times t=0, t=15 min, t=30 min, t=45 min, t=60 min, t=90 min, and t=120 min post-oral. glucose administration using a Contour®TS blood glucose monitor (ref. 81574201, Bayer HealthCare) and reactive strips (ref. 81574274, Bayer HealthCare).
# CB1R (pcDNA3.1-mCB1) = target: T1, CB1R (pcDNA3.1-mCB1) (Mus musculus, UniProt P47746); test: GloSensor cAMP assay in CB1R-transfected HEK293T/17 cells; format: cell-based; conditions: HEK293T/17 cells transfected with mCB1, forskolin 1 μM, FIG. 2
# T1 construct: expressed in transfected cells; host or cells: HEK293T/17 (ATCC), transient transfection with FuGENE HD
# Description: HEK293T/17 (ATCC) cells were cultured in DMEM 10% FCS, then seeded at 30000 cells/well in 96-well plates. After 24 h, the cells were subjected to transient transfection by FuGENE HD (Promega) by pcDNA3.1-mCB1 (50 ng) and pGlo (100 ng) plasmids with or without pertussis toxin (PTX). For the control assays, the cells were transfected with empty pcDNA3 (EV) and pGlo vectors with or without PTX. At 48 h (24 h post-transfection), the cells were loaded for 2 h with 2% GloReagent in CO2-independent medium with 10% FCS (80 μL/well).
# The cells were then treated by adding, at t=0, 10 μL/well of Forskolin (FSK) 1 μM final, in order to increase the basal cAMP concentration. The kinetics of appearance of cAMP was monitored for 10 minutes. At t=10, the molecules to be tested were added and the cAMP variations measured for 20 minutes. The light signal was measured in RLU and is expressed as % response relative to the signal read at t=10 min (FSK1 μM). Sigmoidal curves were obtained by measurement at t=10 min after addition of the molecule to be tested (thus t=20 min total) of the percentage of light signal as a function of molecule concentration. The 4PL regression was carried out using the Sigma Plot software and made it possible to obtain an EC50 (1 experiment, n=3).
# obese C57BL/6 mice [4] = test: Food intake, body weight and body composition (EchoMRI) during 30-day chronic treatment; format: in vivo, mouse; conditions: obese mice, 10 mg/kg i.p. daily, 30 days
# Source text: as §1
# The long-term effect of the treatment on body composition was measured using an EchoMRI™ scanner allowing non-invasive analysis of fat mass, lean mass and body fluid composition by nuclear magnetic resonance (NMR) on the live animal without anaesthesia.
# obese C57BL/6 mice [5] = test: Glucose tolerance test after oral treatment simultaneously with food; format: in vivo, mouse; conditions: 28 days, administered at the same time as the meal
# Description: In order to evaluate the long-term effects of the treatment on blood glucose control, glucose tolerance was evaluated at the end of the treatment period. The mice received an intraperitoneal injection of glucose (2 g/kg) then blood glucose was measured at times t=0, t=15 min, t=30 min, t=45 min, t=60 min, t=90 min, and t=120 min post-glucose injection using a My Life Pura blood glucose monitor (Ypsomed, Paris, France).
# [6] = obese mice, 10 mg/kg i.p. daily, 30 days
# T1 sequence (P47746 whole entry): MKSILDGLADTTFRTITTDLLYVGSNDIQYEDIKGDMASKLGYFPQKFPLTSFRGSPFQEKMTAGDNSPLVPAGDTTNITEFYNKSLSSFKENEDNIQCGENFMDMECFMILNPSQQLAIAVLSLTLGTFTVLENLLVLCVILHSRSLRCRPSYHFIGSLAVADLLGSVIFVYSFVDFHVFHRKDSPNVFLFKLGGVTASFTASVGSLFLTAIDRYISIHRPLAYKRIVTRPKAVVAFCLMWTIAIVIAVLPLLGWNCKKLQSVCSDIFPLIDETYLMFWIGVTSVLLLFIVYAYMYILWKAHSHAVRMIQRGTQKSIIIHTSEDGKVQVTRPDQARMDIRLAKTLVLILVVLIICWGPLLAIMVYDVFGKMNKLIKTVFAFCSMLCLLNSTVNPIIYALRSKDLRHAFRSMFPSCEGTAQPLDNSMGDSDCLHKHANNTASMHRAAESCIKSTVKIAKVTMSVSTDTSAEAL
compound,measurement,setting,value
"CSc1ccc(C2C(N3C(=O)c4ccccc4C3=O)C(=O)N2c2ccc(SC)cc2)cc1 (stereo not drawn) [JM-00.266, trans-1,4-di-(4-methylthiophenyl)-3-N-phthaloyl-azetidine-2-one]",liver damage markers compared with the control,obese C57BL/6 mice [1]; 30-day chronic treatment,does not cause an increase
same,liver toxicity,obese C57BL/6 mice [1]; chronic administration,no liver toxicity
same,ALPI plasma concentration,obese C57BL/6 mice [1]; [6],47.3 ± 3.6
same,ALT plasma concentration,obese C57BL/6 mice [1]; [6],34.3 ± 10.5 U/L
same,AST plasma concentration,obese C57BL/6 mice [1]; [6],60.8 ± 13.4 U/L
same,Gamma GT plasma concentration,obese C57BL/6 mice [1]; [6],<3 U/L
same,Total bilirubin plasma concentration,obese C57BL/6 mice [1]; [6],<2 µmol/L
same,TNF-a expression,[2]; adipose tissue,trend towards the reduction
same,expression of FAS,[2]; adipose tissue,reduction
same,expression of CB R,[2]; any of the tissues tested,not modified
same,expression of FAAH,[2]; any of the tissues tested,not modified
same,expression of GPAT,[2]; liver,reduction
same,expression of SCD-1,[2]; liver,reduction
same,F4/80 expression,[2]; liver and adipose tissues,clearly decreased
same,CB2R expression,[2]; tissues of treated animals,lower
same,expression of NAPE-PLD,"[2]; tissues tested, 28 d oral with food",reduction
same,weight loss versus vehicle,obese C57BL/6 mice [3],lose more weight
same,glucose tolerance compared with vehicle,wild-type C57BL/6 mice,improves glucose tolerance
same,cAMP concentrations in the absence of agonist (AEA),CB1R (pcDNA3.1-mCB1),increased
same,body weight relative to control mice,obese C57BL/6 mice [4],does not decrease
same,food intake compared with control mice,obese C57BL/6 mice [4],not altered
same,glucose tolerance versus vehicle,obese C57BL/6 mice [5],better glucose tolerance

# Source: patent US10457665B2, “1,4-di-(4-methylthiophenyl)-3-phtaloylazetidine-2-one and the derivatives thereof” (Universite De Nantes, priority 2015, dated 2019)
